Values after ≈ are worked out from the molar mass of the structure shown. A value given as a limit tells only on which side of the number the result lay.

From patent US9630957B2, “2,3-butanediamide epoxide compound and preparation method and use thereof” (Institute of Pharmacology and Toxicology Academy of …, priority 2014, dated 2017) come the findings set out here.

The subject of one data set is Vero cells. Briefly: Cytotoxicity of the compounds for Vero cells (CPE observation, TC50). The conditions noted are these: no virus. It is filed as cell-based. How it is done: (§1) 2. Sample treatment: the compounds of the present invention are dissolved in DMSO or diluent to prepare stock solution which is stored at −20° C. The stock solution is formulated to suitable incipient concentration with culture solution immediately before use, and then 3-fold diluted with the culture solution, 8 degrees of dilution each.
(§2) 4. Test Method: Vero cells are seeded into a 96-well culture plate, at 5% CO2, and cultured at 37° C. for 16 hours. The Vero cells are added with different dilutions of drugs, and the degree of cytopathic effect (CPE) in each group is observed. The half toxic concentration (TC50) of each sample for Vero cells is calculated. Vero cells are added with 100TCID50 enterovirus EV71 respectively, and the virus solution is discarded after adsorption at 37° C. for 1 hour, and then drugs with various degrees of dilution are added respectively. Virus control and cell control are set and incubated at 37° C. The degree of cytopathic effect (CPE) in each group is observed when the degree of cytopathic effect (CPE) of virus control group reaches 4+. The half inhibitory concentration (IC50) of each sample for enterovirus EV71 are calculated. Selectivity Index (SI) is calculated according to the following equation: SI=TC50/IC50.

For data set [1], the system named is enterovirus EV71 (BrCr strain). Briefly: Activity screening for anti-enterovirus EV71: inhibition of cytopathic effect in Vero cells. It is filed as cell-based. The conditions noted are these: for IC50: 100TCID50, Vero cells, CPE read when virus control reaches 4+, read-out: IC50 (half inhibitory concentration for enterovirus EV71); for SI (Selectivity Index = TC50/IC50): Vero cells. How it is done:
Test item: Activity screening of the compounds for anti-enterovirus EV71
Test principle: Vero cells are used as viral host. The inhibition of the compound of the invention on the degree of cytopathic effect of Vero cells caused by enterovirus virus EV71 is determined.
1. Virus strain: enterovirus EV71 (BrCr, American Type Culture Collection, ATCC)
as §1
3. Positive control drug: Pirodavir (LGM Pharma), which is a broad-spectrum anti-viral inhibitor.
as §2

Usually melting point stands for the temperature, or range, at which the solid turns liquid. Compound `COc1ccc(NC(=O)[C@H]2O[C@@H]2C(=O)N(Cc2ccccc2)c2ccccc2)cc1OC` [Compound 1, (2S,3S)—N^2-benzyl-N^2-phenyl-N^3-(3,4-dimethoxyphenyl)-2,3-epoxybutanediamide] returned a melting point of 156.5 to 157.2 °C. In addition, in the data set on Vero cells, the “TC50 (half toxic concentration for Vero cells)” value is 10.68 µg/mL. For the same compound, the IC50 in data set [1] is above 2.47 µg/mL.
Compound `O=C(Nc1nccs1)[C@H]1O[C@@H]1C(=O)N(Cc1ccccc1)c1ccccc1` [Compound 2, (2S,3S)—N^2-benzyl-N^2-phenyl-N^3-(2-thiazolyl)-2,3-epoxybutanediamide] displayed a melting point of 146.6 to 147.4 °C. Also, the “TC50 (half toxic concentration for Vero cells)” value in the data set with Vero cells amounted to 10.68 µg/mL. Moreover, in data set [1], the IC50 was 2.47 µg/mL (≈ 6.51 µM) and the “SI (Selectivity Index = TC50/IC50)” value is given as 4.32.
On the same counts, the results for `O=C(Nc1ccc(Cl)c(Cl)c1)[C@H]1O[C@@H]1C(=O)N(Cc1ccccc1)c1ccccc1` [Compound 3, (2S,3S)—N^2-benzyl-N^2-phenyl-N^3-(3,4-dichlorophenyl)-2,3-epoxybutanediamide] are 174.5 to 175.7 °C, 5.14 µg/mL, 2.47 µg/mL (≈ 5.6 µM) and 2.08.
Turning to `O=C(Nc1cccc(F)c1)[C@H]1O[C@@H]1C(=O)N(Cc1ccccc1)c1ccccc1` [Compound 4, (2S,3S)—N^2-benzyl-N^2-phenyl-N^3-(3-fluorophenyl)-2,3-epoxybutanediamide], the melting point lay within 180.5 to 182 °C. Further, the “TC50 (half toxic concentration for Vero cells)” value in the data set on Vero cells came out at 7.41 µg/mL. Also, in data set [1], the IC50 is 2.47 µg/mL (≈ 6.33 µM) and the “SI (Selectivity Index = TC50/IC50)” value was 3.00.
On the same counts, the results for `O=C(Nc1ccc(F)cc1)[C@H]1O[C@@H]1C(=O)N(Cc1ccccc1)c1ccccc1` [Compound 5, (2S,3S)—N^2-benzyl-N^2-phenyl-N^3-(4-fluorophenyl)-2,3-epoxybutanediamide] are 153.8 to 154.7 °C, 10.68 µg/mL, 2.47 µg/mL (≈ 6.33 µM) and 4.32.
Compound `O=C(Nc1ccccc1F)[C@H]1O[C@@H]1C(=O)N(Cc1ccccc1)c1ccccc1` [Compound 6, (2S,3S)—N^2-benzyl-N^2-phenyl-N^3-(2-fluorophenyl)-2,3-epoxybutanediamide] came in with a melting point of 139.2 to 140.3 °C. In addition, the “TC50 (half toxic concentration for Vero cells)” value in the data set with Vero cells amounted to 4.28 µg/mL. Besides, in data set [1], the IC50 stood at 0.82 µg/mL (≈ 2.1 µM) and the “SI (Selectivity Index = TC50/IC50)” value was 5.22.
On the same counts, the results for `COc1cccc(NC(=O)[C@H]2O[C@@H]2C(=O)N(Cc2ccccc2)c2ccccc2)c1` [Compound 7, (2S,3S)—N^2-benzyl-N^2-phenyl-N^3-(3-methoxyphenyl)-2,3-epoxybutanediamide] are 130.7 to 131.7 °C, 4.28 µg/mL, 0.27 µg/mL (≈ 0.671 µM) and 15.85.
Consider `O=C(Nc1cccc(Cl)c1)[C@H]1O[C@@H]1C(=O)N(Cc1ccccc1)c1ccccc1` [Compound 8, (2S,3S)—N^2-benzyl-N^2-phenyl-N^3-(3-chlorophenyl)-2,3-epoxybutanediamide], for which the melting point was in the range of 179.2 to 179.6 °C. In addition, in the data set with Vero cells, the “TC50 (half toxic concentration for Vero cells)” value amounted to 4.28 µg/mL. Further, in data set [1], the IC50 came out at 0.27 µg/mL (≈ 0.664 µM) and the “SI (Selectivity Index = TC50/IC50)” value came out at 15.85.
On the same counts, the results for `O=C(Nc1ccc([N+](=O)[O-])cc1)[C@H]1O[C@@H]1C(=O)N(Cc1ccccc1)c1ccccc1` [Compound 9, (2S,3S)—N^2-benzyl-N^2-phenyl-N^3-(4-nitrophenyl)-2,3-epoxybutanediamide] are 160.2 to 161.3 °C, 4.28 µg/mL, 0.82 µg/mL (≈ 1.96 µM) and 5.22.
On the same counts, the results for `O=C(Nc1cccc(Cl)c1Cl)[C@H]1O[C@@H]1C(=O)N(Cc1ccccc1)c1ccccc1` [Compound 10, (2S,3S)—N^2-benzyl-N^2-phenyl-N^3-(2,3-dichlorophenyl)-2,3-epoxybutanediamide] are 115.7 to 115.8 °C, 1.43 µg/mL, 0.15 µg/mL (≈ 0.34 µM) and 9.53.
On the same counts, the results for `O=C(Nc1ccccc1Cl)[C@H]1O[C@@H]1C(=O)N(Cc1ccccc1)c1ccccc1` [Compound 11, (2S,3S)—N^2-benzyl-N^2-phenyl-N^3-(2-chlorophenyl)-2,3-epoxybutanediamide] are 117.3 to 118.2 °C, 1.43 µg/mL, 0.15 µg/mL (≈ 0.369 µM) and 9.53.
The compound `O=C(Nc1ccc(Cl)cc1)[C@H]1O[C@@H]1C(=O)N(Cc1ccccc1)c1ccccc1` [Compound 12, (2S,3S)—N^2-benzyl-N^2-phenyl-N^3-(4-chlorophenyl)-2,3-epoxybutanediamide] gave a melting point of 175.2 to 175.8 °C. The “TC50 (half toxic concentration for Vero cells)” value in the data set with Vero cells amounted to 10.68 µg/mL. In addition, in data set [1], the IC50 was found to be 0.23 µg/mL (≈ 0.565 µM) and the “SI (Selectivity Index = TC50/IC50)” value stood at 46.43.
Regarding `Cc1c(Cl)cccc1NC(=O)[C@H]1O[C@@H]1C(=O)N(Cc1ccccc1)c1ccccc1` [Compound 13, (2S,3S)—N^2-benzyl-N^2-phenyl-N^3-(2-methyl-3-chlorophenyl)-2,3-epoxybutanediamide], the melting point was in the range of 119.4 to 120.2 °C. For the same compound, in the data set with Vero cells, the “TC50 (half toxic concentration for Vero cells)” value stood at 1.19 µg/mL. Moreover, the IC50 in data set [1] is above 0.27 µg/mL.
Turning to `O=C(Nc1cccc(Br)c1)[C@H]1O[C@@H]1C(=O)N(Cc1ccccc1)c1ccccc1` [Compound 14, (2S,3S)—N^2-benzyl-N^2-phenyl-N^3-(3-bromophenyl)-2,3-epoxybutanediamide], the melting point is 177.5 to 178.2 °C. Further, the “TC50 (half toxic concentration for Vero cells)” value in the data set on Vero cells came to 12.83 µg/mL. In addition, in data set [1], the IC50 was found to be 1.43 µg/mL (≈ 3.17 µM) and the “SI (Selectivity Index = TC50/IC50)” value is reported as 8.97.
On the same counts, the results for `O=C(Nc1ccccc1Br)[C@H]1O[C@@H]1C(=O)N(Cc1ccccc1)c1ccccc1` [Compound 15, (2S,3S)—N^2-benzyl-N^2-phenyl-N^3-(2-bromophenyl)-2,3-epoxybutanediamide] are 113.2 to 114.3 °C, 1.43 µg/mL, 0.47 µg/mL (≈ 1.04 µM) and 3.04.
`O=C(Nc1nc2ccccc2s1)c1ccc(N(Cc2ccc(F)cc2)C(=O)[C@H]2O[C@@H]2C(=O)O)cc1` [Compound 16, (2S,3S)-3-((4-(benzo[d]thiazol-2-ylcarbamoyl)phenyl)(4-fluorobenzyl)carbamoyl)oxirane-2-carboxylic acid] registered a melting point of 200.6 to 201.3 °C. Moreover, in the data set on Vero cells, the “TC50 (half toxic concentration for Vero cells)” value came to 17.25 µg/mL. For the same compound, the IC50 in data set [1] was above 2.47 µg/mL.
With `COc1ccc(NC(=O)[C@H]2O[C@@H]2C(=O)N(Cc2ccc(F)cc2)c2ccc(C(=O)Nc3nc4ccccc4s3)cc2)cc1OC` [Compound 17, (2S,3S)—N^2-(4-(benzo[d]thiazol-2-ylcarbamoyl)phenyl)-N^3-(3,4-dimethoxyphenyl)-N^2-(4-fluorobenzyl)-2,3-epoxybutanediamide], the melting point was 205.6 to 206.3 °C. In addition, the “TC50 (half toxic concentration for Vero cells)” value in the data set with Vero cells was 115.47 µg/mL. Besides, in data set [1], the IC50 was found to be 38.5 µg/mL (≈ 61.4 µM) and the “SI (Selectivity Index = TC50/IC50)” value was 3.00.
`O=C(Nc1nc2ccccc2s1)c1ccc(N(Cc2ccc(F)cc2)C(=O)[C@H]2O[C@@H]2C(=O)Nc2cccc(Br)c2)cc1` [Compound 18, (2S,3S)—N^2-(4-(benzo[d]thiazol-2-ylcarbamoyl)phenyl)-N^3-(3-bromophenyl)-N^2-(4-fluorobenzyl)-2,3-epoxybutanediamide]: the melting point was 206.3 to 207.1 °C. The “TC50 (half toxic concentration for Vero cells)” value with Vero cells was determined as 1.43 µg/mL. In addition, in data set [1], the IC50 was above 0.82 µg/mL.
On the same counts, the results for `O=C(Nc1nc2ccccc2s1)c1ccc(N(Cc2ccc(F)cc2)C(=O)[C@H]2O[C@@H]2C(=O)Nc2ccc(Cl)cc2)cc1` [Compound 19, (2S,3S)—N^2-(4-(benzo[d]thiazol-2-ylcarbamoyl)phenyl)-N^3-(4-chlorophenyl)-N^2-(4-fluorobenzyl)-2,3-epoxybutanediamide] are 198.7 to 199.5 °C, 1.43 µg/mL and above 0.82 µg/mL.
Turning to `COC(=O)c1cnc(NC(=O)[C@H]2O[C@@H]2C(=O)N(Cc2ccccc2)c2ccc(C(=O)Nc3nc4ccccc4s3)cc2)s1` [Compound 42, (2S,3S)—N^2-(4-(benzo[d]thiazol-2-ylcarbamoyl)phenyl)-N^2-benzyl-N^3-(5-methoxycarbonylthiazol-2-yl)-2,3-epoxybutanediamide], the “TC50 (half toxic concentration for Vero cells)” value in the data set with Vero cells turned out to be 4.28 µg/mL. For the same compound, the IC50 in data set [1] was above 0.82 µg/mL.
On to `CCOC(=O)c1ccc(OCCC2CCN(c3ccc(C)nn3)CC2)cc1` [Pirodavir, reference compound], for which the “TC50 (half toxic concentration for Vero cells)” value with Vero cells amounted to 4.81 µg/mL. For the same compound, in data set [1], the IC50 was 0.13 µg/mL (≈ 0.352 µM) and the “SI (Selectivity Index = TC50/IC50)” value worked out at 4.81.
